Source: patent publication US8841413B2, “Antidiabetic compounds” (Cadila Healthcare Limited, priority 2006, dated 2014)

Columns and labels:
[1] = target: T1, human glucagon receptor (Homo sapiens, UniProt P47871); experiment: In vitro human glucagon antagonist activity (inhibition of cAMP production), CHO/human glucagon R cells; type: cell-based
T1 construct: The full-length cDNA was cloned in pcDNA3.1(Invitrogen); expressed in transfected cells

[2] = Stability against liver microsomes; type: in vitro ADME, human; settings: for % degradation in 24 h when incubated with liver microsomes: 2 μM, 37° C.; for half-life at 2 μM: human, human liver microsomes, pH 7.8, 37° C., read-out: half-life (t1/2) with liver microsomes
Outline: (§1)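 Quench: TFA/H2O 10% v/v. HPLC, TFA/H2O equilibration, 1 mL/min; UV 206 nm. Peaks hand-collected → ESI-MS.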

[3] = Stability in simulated intestinal fluid; type: in vitro ADME; settings: 2 μM, 37° C., pH 7.5
Outline: as §1

[4] = target: DPP IV (Homo sapiens, UniProt P27487); experiment: Stability against DPP IV enzyme; type: in vitro ADME; settings: for % degradation in 24 h when incubated with DPP-IV enzyme: 2 μM, 37° C.; for half-life at 2 μM: DPP IV enzyme, pH 7.8, 37° C., read-out: half-life (t1/2) with DPP-IV enzyme
Outline: as §1

[5] = Stability in simulated gastric fluid; type: in vitro ADME; settings: 2 μM, 37° C., pH 1.5, pepsin
Outline: as §1

[6] = Stability in human plasma; type: in vitro ADME; settings: for % degradation in 24 h when incubated with human plasma: 2 μM, 37° C.; for half-life at 2 μM: human, pooled human plasma, pH 7.8, 37° C., read-out: half-life (t1/2) in human plasma
Outline: as §1

[7] = system: RIN5F (Rat Insulinoma) cells; experiment: In vitro glucose-dependent insulin secretion (RIN5F cell assay); type: cell-based; settings: 16.7 mM glucose load, mean ± S.D., n = 3
Description: After trypsinization, RIN5F cells were seeded at a concentration of 0.2×10^6·cells per well, in 12 well plates.
The supernatant was collected and the insulin amount was measured by ultra sensitive Rat insulin ELISA kit (Crystal Chem, Ill.). The protein was estimated in the supernatant using Bicinchoninic Acid kit, according to the manufacturer's protocol (Sigma Aldrich, Mo.). The total insulin content obtained in Pico-gram (pg) was divided with the total protein (μg) in order to normalize for differences in cell density between wells.

[8] = 1 nM test compound (fourth concentration column, between 100 nM and 10 μM) with saturated concentration of glucagon peptide
[9] = 1 nM test compound with saturated concentration of glucagon peptide
[10] = 10 nM test compound with saturated concentration of glucagon peptide
[11] = 100 nM test compound with saturated concentration of glucagon peptide
[12] = 10 μM test compound with saturated concentration of glucagon peptide

Sequence of DPP IV (P27487 whole entry, species assumed): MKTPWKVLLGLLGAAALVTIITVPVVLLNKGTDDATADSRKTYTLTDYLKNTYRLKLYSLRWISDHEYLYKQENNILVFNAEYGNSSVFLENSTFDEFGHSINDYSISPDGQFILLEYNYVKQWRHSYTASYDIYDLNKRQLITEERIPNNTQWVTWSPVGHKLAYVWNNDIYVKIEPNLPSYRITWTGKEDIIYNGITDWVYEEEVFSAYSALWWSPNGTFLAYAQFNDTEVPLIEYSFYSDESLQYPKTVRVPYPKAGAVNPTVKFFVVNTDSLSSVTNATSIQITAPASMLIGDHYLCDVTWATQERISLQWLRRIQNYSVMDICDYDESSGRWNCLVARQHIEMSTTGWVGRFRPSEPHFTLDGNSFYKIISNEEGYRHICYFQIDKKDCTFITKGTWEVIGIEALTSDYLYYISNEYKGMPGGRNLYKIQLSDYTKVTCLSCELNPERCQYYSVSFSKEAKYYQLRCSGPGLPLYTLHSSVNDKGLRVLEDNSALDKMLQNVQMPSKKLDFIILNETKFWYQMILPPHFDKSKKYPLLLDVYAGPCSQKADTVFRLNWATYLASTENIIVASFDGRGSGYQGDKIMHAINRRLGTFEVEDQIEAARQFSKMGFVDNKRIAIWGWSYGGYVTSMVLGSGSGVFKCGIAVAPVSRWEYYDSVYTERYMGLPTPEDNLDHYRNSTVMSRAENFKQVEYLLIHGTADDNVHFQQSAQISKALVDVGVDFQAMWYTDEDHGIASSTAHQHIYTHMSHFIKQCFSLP
T1 sequence (P47871 26-477): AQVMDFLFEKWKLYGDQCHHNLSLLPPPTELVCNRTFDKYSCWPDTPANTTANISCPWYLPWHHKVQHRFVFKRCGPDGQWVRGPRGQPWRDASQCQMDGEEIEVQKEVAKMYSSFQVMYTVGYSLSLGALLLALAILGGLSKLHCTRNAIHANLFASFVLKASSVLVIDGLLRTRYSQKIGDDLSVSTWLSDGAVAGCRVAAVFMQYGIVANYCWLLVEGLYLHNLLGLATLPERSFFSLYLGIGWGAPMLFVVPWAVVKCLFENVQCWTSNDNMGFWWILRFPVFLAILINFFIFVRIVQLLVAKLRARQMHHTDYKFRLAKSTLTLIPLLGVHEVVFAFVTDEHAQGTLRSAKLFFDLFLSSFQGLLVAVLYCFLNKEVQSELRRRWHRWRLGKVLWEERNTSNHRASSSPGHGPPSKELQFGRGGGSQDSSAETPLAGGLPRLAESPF

CCc1cc(OC)ccc1-c1ccc(CC(NC(=O)[C@H](CC(=O)O)NC(=O)[C@H](CO)NC(=O)[C@@H](NC(=O)C(C)(Cc2ccccc2F)NC(=O)[C@@H](NC(=O)CNC(=O)[C@H](CCC(N)=O)NC(=O)[C@H](CO)NC(=O)[C@@H](N)Cc2c[nH]cn2)[C@@H](C)O)[C@@H](C)O)C(=O)NC(Cc2ccc(-c3ccccc3C)nc2)C(N)=O)cc1 (single isomer, unassigned) [compound 22]
Human Glucagon receptor antagonistic activity, inhibition of cAMP production of Glucagon peptide [1, 8]: 18 ± 0.03 pmol/ml/μg prt | Human Glucagon receptor antagonistic activity, inhibition of cAMP production of Glucagon peptide [1, 9]: 21 ± 0.11 pmol/ml/μg prt | Human Glucagon receptor antagonistic activity, inhibition of cAMP production of Glucagon peptide [1, 10]: 19 ± 0.02 pmol/ml/μg prt | Human Glucagon receptor antagonistic activity, inhibition of cAMP production of Glucagon peptide [1, 11]: 18 ± 0.07 pmol/ml/μg prt | Human Glucagon receptor antagonistic activity, inhibition of cAMP production of Glucagon peptide [1, 12]: 16 ± 0.02 pmol/ml/μg prt | % degradation in 24 h when incubated with liver microsomes [2]: 81% | half-life at 2 μM [2]: 1 h | % degradation in 24 h when incubated with simulated intestinal fluid [3]: 45% | half-life (t1/2) in simulated intestinal fluid [3]: (6) h | % degradation in 24 h when incubated with DPP-IV enzyme [4]: 75% | half-life at 2 μM [4]: 9 h | % degradation in 24 h when incubated with simulated gastric fluid [5]: 14% | half-life (t1/2) in simulated gastric fluid [5]: (8) h | % degradation in 24 h when incubated with human plasma [6]: 77% | half-life at 2 μM [6]: 8 h | Insulin secretion ([7]; 0.1 nM test compd.): 12.1 ± 0.42 pg/µg/h | Insulin secretion ([7]; 1 nM test compd.): 14.6 ± 0.41 pg/µg/h | Insulin secretion ([7]; 10 nM test compd.): 27.8 ± 0.46 pg/µg/h

CCc1cc(OC)ccc1-c1ccc(CC(NC(=O)[C@H](CC(=O)O)NC(=O)[C@H](CO)NC(=O)[C@@H](NC(=O)C(C)(Cc2ccccc2F)NC(=O)[C@@H](NC(=O)CNC(=O)[C@H](CCC(N)=O)NC(=O)[C@H](CO)NC(=O)[C@@H](N)Cc2c[nH]cn2)[C@@H](C)O)[C@@H](C)O)C(=O)NC(Cc2ccc(-c3ccccc3F)cc2)C(N)=O)cc1 (single isomer, unassigned) [compound 23]
Human Glucagon receptor antagonistic activity, inhibition of cAMP production of Glucagon peptide [1, 8]: 0 pmol/ml/μg prt | Human Glucagon receptor antagonistic activity, inhibition of cAMP production of Glucagon peptide [1, 9]: 4 ± 0.05 pmol/ml/μg prt | Human Glucagon receptor antagonistic activity, inhibition of cAMP production of Glucagon peptide [1, 10]: 2 ± 0.13 pmol/ml/μg prt | Human Glucagon receptor antagonistic activity, inhibition of cAMP production of Glucagon peptide [1, 11]: 2 ± 0.12 pmol/ml/μg prt | Human Glucagon receptor antagonistic activity, inhibition of cAMP production of Glucagon peptide [1, 12]: 0 pmol/ml/μg prt | % degradation in 24 h when incubated with liver microsomes [2]: 82% | half-life at 2 μM [2]: 1 h | % degradation in 24 h when incubated with simulated intestinal fluid [3]: 50% | half-life (t1/2) in simulated intestinal fluid [3]: (6) h | % degradation in 24 h when incubated with DPP-IV enzyme [4]: 77% | half-life at 2 μM [4]: 9 h | % degradation in 24 h when incubated with simulated gastric fluid [5]: 13% | half-life (t1/2) in simulated gastric fluid [5]: (8) h | % degradation in 24 h when incubated with human plasma [6]: 80% | half-life at 2 μM [6]: 8 h | Insulin secretion ([7]; 0.1 nM test compd.): 11.9 ± 0.17 pg/µg/h | Insulin secretion ([7]; 1 nM test compd.): 14.2 ± 0.13 pg/µg/h | Insulin secretion ([7]; 10 nM test compd.): 27.6 ± 0.16 pg/µg/h

CCc1cc(OC)ccc1-c1ccc(CC(NC(=O)[C@H](CC(=O)O)NC(=O)[C@H](CO)NC(=O)[C@@H](NC(=O)C(C)(Cc2ccccc2F)NC(=O)[C@@H](NC(=O)CNC(=O)[C@H](CCC(N)=O)NC(=O)[C@H](CO)NC(=O)[C@@H](N)Cc2c[nH]cn2)[C@@H](C)O)[C@@H](C)O)C(=O)NC(Cc2ccc(-c3ccccc3C(F)(F)F)cc2)C(N)=O)cc1 (single isomer, unassigned) [compound 24]
Human Glucagon receptor antagonistic activity, inhibition of cAMP production of Glucagon peptide [1, 8]: 0 pmol/ml/μg prt | Human Glucagon receptor antagonistic activity, inhibition of cAMP production of Glucagon peptide [1, 9]: 4 ± 0.09 pmol/ml/μg prt | Human Glucagon receptor antagonistic activity, inhibition of cAMP production of Glucagon peptide [1, 10]: 2 ± 0.12 pmol/ml/μg prt | Human Glucagon receptor antagonistic activity, inhibition of cAMP production of Glucagon peptide [1, 11]: 0 pmol/ml/μg prt | Human Glucagon receptor antagonistic activity, inhibition of cAMP production of Glucagon peptide [1, 12]: 0 pmol/ml/μg prt | % degradation in 24 h when incubated with liver microsomes [2]: 80% | half-life at 2 μM [2]: 1 h | % degradation in 24 h when incubated with simulated intestinal fluid [3]: 43% | half-life (t1/2) in simulated intestinal fluid [3]: (6) h | % degradation in 24 h when incubated with DPP-IV enzyme [4]: 76% | half-life at 2 μM [4]: 9 h | % degradation in 24 h when incubated with simulated gastric fluid [5]: 14% | half-life (t1/2) in simulated gastric fluid [5]: (8) h | % degradation in 24 h when incubated with human plasma [6]: 78% | half-life at 2 μM [6]: 8 h | Insulin secretion ([7]; 0.1 nM test compd.): 12.3 ± 0.33 pg/µg/h | Insulin secretion ([7]; 1 nM test compd.): 14.8 ± 0.16 pg/µg/h | Insulin secretion ([7]; 10 nM test compd.): 28.1 ± 0.22 pg/µg/h

CCc1cc(OC)ccc1-c1ccc(CC(NC(=O)[C@H](CC(=O)O)NC(=O)[C@H](CO)NC(=O)[C@@H](NC(=O)C(C)(Cc2ccccc2F)NC(=O)[C@@H](NC(=O)CNC(=O)[C@H](CCC(N)=O)NC(=O)[C@H](C)NC(=O)[C@@H](N)Cc2c[nH]cn2)[C@@H](C)O)[C@@H](C)O)C(=O)NC(Cc2ccc(-c3ccccc3C)cc2)C(N)=O)cc1 (single isomer, unassigned) [compound 25]
Human Glucagon receptor antagonistic activity, inhibition of cAMP production of Glucagon peptide [1, 8]: 8 ± 0.12 pmol/ml/μg prt | Human Glucagon receptor antagonistic activity, inhibition of cAMP production of Glucagon peptide [1, 9]: 18 ± 0.12 pmol/ml/μg prt | Human Glucagon receptor antagonistic activity, inhibition of cAMP production of Glucagon peptide [1, 10]: 16 ± 0.11 pmol/ml/μg prt | Human Glucagon receptor antagonistic activity, inhibition of cAMP production of Glucagon peptide [1, 11]: 12 ± 0.13 pmol/ml/μg prt | Human Glucagon receptor antagonistic activity, inhibition of cAMP production of Glucagon peptide [1, 12]: 6 ± 0.18 pmol/ml/μg prt | % degradation in 24 h when incubated with liver microsomes [2]: 83% | half-life at 2 μM [2]: 1 h | % degradation in 24 h when incubated with simulated intestinal fluid [3]: 46% | half-life (t1/2) in simulated intestinal fluid [3]: (6) h | % degradation in 24 h when incubated with DPP-IV enzyme [4]: 74% | half-life at 2 μM [4]: 9 h | % degradation in 24 h when incubated with simulated gastric fluid [5]: 12% | half-life (t1/2) in simulated gastric fluid [5]: (8) h | % degradation in 24 h when incubated with human plasma [6]: 75% | half-life at 2 μM [6]: 8 h | Insulin secretion ([7]; 0.1 nM test compd.): 12.4 ± 0.22 pg/µg/h | Insulin secretion ([7]; 1 nM test compd.): 15.2 ± 0.32 pg/µg/h | Insulin secretion ([7]; 10 nM test compd.): 29.6 ± 0.50 pg/µg/h

CCc1cc(OC)ccc1-c1ccc(CC(NC(=O)[C@H](CC(=O)O)NC(=O)[C@H](CO)NC(=O)[C@@H](NC(=O)C(C)(Cc2ccccc2F)NC(=O)[C@@H](NC(=O)CNC(=O)[C@H](CCC(N)=O)NC(=O)[C@H](C)NC(=O)[C@@H](N)Cc2c[nH]cn2)[C@@H](C)O)[C@@H](C)O)C(=O)NC(Cc2ccc(-c3ccccc3C)nc2)C(N)=O)cc1 (single isomer, unassigned) [compound 26]
Human Glucagon receptor antagonistic activity, inhibition of cAMP production of Glucagon peptide [1, 8]: 4 ± 0.01 pmol/ml/μg prt | Human Glucagon receptor antagonistic activity, inhibition of cAMP production of Glucagon peptide [1, 9]: 15 ± 0.11 pmol/ml/μg prt | Human Glucagon receptor antagonistic activity, inhibition of cAMP production of Glucagon peptide [1, 10]: 12 ± 0.13 pmol/ml/μg prt | Human Glucagon receptor antagonistic activity, inhibition of cAMP production of Glucagon peptide [1, 11]: 8 ± 0.09 pmol/ml/μg prt | Human Glucagon receptor antagonistic activity, inhibition of cAMP production of Glucagon peptide [1, 12]: 2 ± 0.08 pmol/ml/μg prt | % degradation in 24 h when incubated with liver microsomes [2]: 78% | half-life at 2 μM [2]: 1 h | % degradation in 24 h when incubated with simulated intestinal fluid [3]: 40% | half-life (t1/2) in simulated intestinal fluid [3]: (6) h | % degradation in 24 h when incubated with DPP-IV enzyme [4]: 70% | half-life at 2 μM [4]: 9 h | % degradation in 24 h when incubated with simulated gastric fluid [5]: 14% | half-life (t1/2) in simulated gastric fluid [5]: (8) h | % degradation in 24 h when incubated with human plasma [6]: 71% | half-life at 2 μM [6]: 8 h | Insulin secretion ([7]; 0.1 nM test compd.): 12.1 ± 0.51 pg/µg/h | Insulin secretion ([7]; 1 nM test compd.): 14.1 ± 0.19 pg/µg/h | Insulin secretion ([7]; 10 nM test compd.): 28.1 ± 0.29 pg/µg/h

CCc1cc(OC)ccc1-c1ccc(CC(NC(=O)[C@H](CC(=O)O)NC(=O)[C@H](CO)NC(=O)[C@@H](NC(=O)C(C)(Cc2ccccc2F)NC(=O)[C@@H](NC(=O)CNC(=O)[C@H](CCC(N)=O)NC(=O)[C@H](C)NC(=O)[C@@H](N)Cc2c[nH]cn2)[C@@H](C)O)[C@@H](C)O)C(=O)NC(Cc2ccc(-c3ccccc3F)cc2)C(N)=O)cc1 (single isomer, unassigned) [compound 27]
Human Glucagon receptor antagonistic activity, inhibition of cAMP production of Glucagon peptide [1, 8]: 3 ± 0.12 pmol/ml/μg prt | Human Glucagon receptor antagonistic activity, inhibition of cAMP production of Glucagon peptide [1, 9]: 14 ± 0.02 pmol/ml/μg prt | Human Glucagon receptor antagonistic activity, inhibition of cAMP production of Glucagon peptide [1, 10]: 11 ± 0.03 pmol/ml/μg prt | Human Glucagon receptor antagonistic activity, inhibition of cAMP production of Glucagon peptide [1, 11]: 7 ± 0.22 pmol/ml/μg prt | Human Glucagon receptor antagonistic activity, inhibition of cAMP production of Glucagon peptide [1, 12]: 0 pmol/ml/μg prt | % degradation in 24 h when incubated with liver microsomes [2]: 77% | half-life at 2 μM [2]: 1 h | % degradation in 24 h when incubated with simulated intestinal fluid [3]: 41% | half-life (t1/2) in simulated intestinal fluid [3]: (6) h | % degradation in 24 h when incubated with DPP-IV enzyme [4]: 86% | half-life at 2 μM [4]: 9 h | % degradation in 24 h when incubated with simulated gastric fluid [5]: 15% | half-life (t1/2) in simulated gastric fluid [5]: (8) h | % degradation in 24 h when incubated with human plasma [6]: 70% | half-life at 2 μM [6]: 8 h | Insulin secretion ([7]; 0.1 nM test compd.): 12.6 ± 0.25 pg/µg/h | Insulin secretion ([7]; 1 nM test compd.): 15.3 ± 0.31 pg/µg/h | Insulin secretion ([7]; 10 nM test compd.): 29.7 ± 0.48 pg/µg/h
